Test results: paper PMC8967002, “Quantitative input–output dynamics of a c-di-GMP signal transduction cascade in Vibrio cholerae” (PLoS Biology, 2022)

Legend:
NspS-MbaA = NspS-MbaA (Vibrio cholerae, UniProt Q9KU25); conditions: ΔnspC ΔpotD1 V. cholerae cells (no norspermidine synthesis or import); M9 minimal medium; activates MbaA diguanylate cyclase output via NspS
NspS-6xHis = NspS-6xHis (Vibrio cholerae, UniProt Q9KU25); experiment: biochemical
NspS-6xHis, sequence (Q9KU25 35-359 limits assumed): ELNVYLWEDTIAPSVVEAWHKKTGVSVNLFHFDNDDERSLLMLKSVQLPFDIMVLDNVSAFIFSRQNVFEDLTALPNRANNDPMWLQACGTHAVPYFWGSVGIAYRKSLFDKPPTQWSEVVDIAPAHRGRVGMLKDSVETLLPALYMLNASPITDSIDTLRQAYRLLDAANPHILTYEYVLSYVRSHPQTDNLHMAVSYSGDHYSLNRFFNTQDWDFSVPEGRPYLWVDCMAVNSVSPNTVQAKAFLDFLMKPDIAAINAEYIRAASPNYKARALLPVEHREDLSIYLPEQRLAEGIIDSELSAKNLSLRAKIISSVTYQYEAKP

NspS-MbaA, sequence (Q9KU25 whole entry, looked up): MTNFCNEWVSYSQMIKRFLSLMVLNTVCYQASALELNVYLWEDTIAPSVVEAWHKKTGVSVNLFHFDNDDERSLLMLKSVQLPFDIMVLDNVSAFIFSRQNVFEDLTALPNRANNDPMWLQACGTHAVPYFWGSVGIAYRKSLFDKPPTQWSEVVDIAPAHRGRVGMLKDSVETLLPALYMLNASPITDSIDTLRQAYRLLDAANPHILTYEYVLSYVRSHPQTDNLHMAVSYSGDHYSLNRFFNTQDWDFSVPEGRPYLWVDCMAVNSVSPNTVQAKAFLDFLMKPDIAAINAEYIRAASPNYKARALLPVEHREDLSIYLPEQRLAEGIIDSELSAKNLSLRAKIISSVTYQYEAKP

| SMILES | EC50 (NspS-MbaA) [nM] | Kd (NspS-6xHis) [nM] |
| --- | --- | --- |
| NCCCNCCCN [norspermidine] | 1 to 5 | 67.1 ± 12.2 |
| NCCCCNCCCN [spermidine] |  | 48.4 ± 14.7 |
